Earlier results as cited in publication PMC9262839 (Cancer Discovery, 2022).

B1: amivantamab: EGFR and MET bispecific antibody (antibody, chains of the INN, looked up, V domains shown)
VH: QVQLVESGGGVVQPGRSLRLSCAASGFTFSTYGMHWVRQAPGKGLEWVAVIWDDGSYKYYGDSVKGRFTISRDNSKNTLYLQMNSLRAEDTAVYYCARDGITMVRGVMKDYFDYWGQGTLVTVSS
VL: AIQLTQSPSSLSASVGDRVTITCRASQDISSALVWYQQKPGKAPKLLIYDASSLESGVPSRFSGSESGTDFTLTISSLQPEDFATYYCQQFNSYPLTFGGGTKVEIK
VH2: QVQLVQSGAEVKKPGASVKVSCETSGYTFTSYGISWVRQAPGHGLEWMGWISAYNGYTNYAQKLQGRVTMTTDTSTSTAYMELRSLRSDDTAVYYCARDLRGTNYFDYWGQGTLVTVSS
VL2: DIQMTQSPSSVSASVGDRVTITCRASQGISNWLAWFQHKPGKAPKLLIYAASSLLSGVPSRFSGSGSGTDFTLTISSLQPEDFATYYCQQANSFPITFGQGTRLEIK

Key:
[1] = cited from earlier work
NSCLC with EGFRexon20ins = conditions: cited from earlier work

Molecule | patients with ≥grade 3 diarrhea [1] [%] | patients with ≥grade 3 treatment-related adverse events [1] | objective response rate (ORR) (NSCLC with EGFRexon20ins)
C=CC(=O)Nc1cc(Nc2ncc(C(=O)OC(C)C)c(-c3cn(C)c4ccccc34)n2)c(OC)cc1N(C)CCN(C)C [Mobocertinib] | 21 | around 40% | –
B1 | – | – | around 40%
